A word on the inhibition: it is the drop in the measured response relative to a control, in per cent.

The results in this text go back to patent US20090253687A1, “Fused Heterocyclic Compounds and Their Use as Mineralocorticoid Receptor Ligands” (priority 2005, published 2009).

This assay deals with T1, Human Mineralocorticoid Receptor (hMR) (Homo sapiens, UniProt P08235).
T1 construct: Full-length cDNA was constructed from two fragments of hMR cDNA amplified separately; expressed in transfected cells; host or cells: FreeStyle 293 cells transiently transfected with pMCMVneo-hMR; supernatant of the freeze-thaw lysate after ultracentrifugation
T1 sequence (P08235 1-984): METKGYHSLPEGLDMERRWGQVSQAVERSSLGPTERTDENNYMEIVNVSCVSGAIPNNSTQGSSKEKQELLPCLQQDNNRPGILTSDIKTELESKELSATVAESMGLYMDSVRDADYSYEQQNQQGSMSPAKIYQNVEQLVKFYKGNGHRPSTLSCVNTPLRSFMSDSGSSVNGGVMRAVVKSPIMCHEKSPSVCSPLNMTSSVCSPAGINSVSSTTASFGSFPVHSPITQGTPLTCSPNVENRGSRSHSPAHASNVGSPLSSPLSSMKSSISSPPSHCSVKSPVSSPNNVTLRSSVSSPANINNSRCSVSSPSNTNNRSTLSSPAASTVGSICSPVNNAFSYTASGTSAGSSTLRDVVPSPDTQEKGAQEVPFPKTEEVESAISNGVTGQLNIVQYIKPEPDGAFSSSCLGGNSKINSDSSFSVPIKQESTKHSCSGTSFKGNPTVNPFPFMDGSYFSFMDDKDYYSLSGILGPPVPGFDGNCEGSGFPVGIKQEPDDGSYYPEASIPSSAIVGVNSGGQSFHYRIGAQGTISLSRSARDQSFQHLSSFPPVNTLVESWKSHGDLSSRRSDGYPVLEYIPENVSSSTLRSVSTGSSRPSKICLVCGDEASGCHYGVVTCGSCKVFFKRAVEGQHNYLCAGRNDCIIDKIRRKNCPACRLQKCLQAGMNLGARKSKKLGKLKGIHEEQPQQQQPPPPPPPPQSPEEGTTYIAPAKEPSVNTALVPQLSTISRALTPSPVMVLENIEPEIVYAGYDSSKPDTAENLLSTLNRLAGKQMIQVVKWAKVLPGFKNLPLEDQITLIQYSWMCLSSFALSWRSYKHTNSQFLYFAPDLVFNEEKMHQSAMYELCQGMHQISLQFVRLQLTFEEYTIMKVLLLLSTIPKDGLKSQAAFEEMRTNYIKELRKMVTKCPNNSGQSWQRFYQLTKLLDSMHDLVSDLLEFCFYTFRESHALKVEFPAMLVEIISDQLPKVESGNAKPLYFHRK
The experiment in a line: Inhibition of binding of [3H]-aldosterone to hMR (lysate of FreeStyle 293 cells expressing hMR). The conditions noted are these: compound at 10^−5 M; 10 nM [3H]-aldosterone; hMR lysate 1.0 mg/ml; 16 hr at 4° C.; read-out: Inhibition rate (at 10^−5 M). The method, then: The following procedures described in this Example were carried out according to the methods described in Molecular Cloning—Cold Spring Harbor Laboratory (1989) or protocols specified by manufacturers. (1) Cloning of Human Mineralocorticoid Receptor (hMR) cDNA hMR cDNA was amplified by polymerase chain reaction (PCR) from human kidney cDNA library. Full-length cDNA was constructed from two fragments of hMR cDNA amplified separately. The primers were designed referring to the nucleotide sequence of hMR cDNA reported by Arriza et. al (Science 1987; 237: 268-275). The PCR reactions were carried out using Pyrobest® DNA polymerase (Takara). The PCR products were electrophoresed in agarose gel, and 1.7 kb (region (i)) and 1.5 kb (region (ii)) DNA fragments were recovered. Each DNA fragment was inserted into pCR®4Blunt-TOPO® vector (Invitrogen). The resulting plasmids thus obtained were designated as pB-hMR (i) and pB-hMR (ii). To obtain the full-length hMR cDNA, pB-hMR (i) was digested with XhoI and PvuI, and pB-hMR (ii) was digested with PvuI and KpnI, respectively, and the two cDNA fragments were ligated into pBlueScript®IISK+ vector (Stratagene). The resulting plasmid thus obtained was designated as pB-hMR. (2) Construction of hMR Expression Plasmid pMCMVneo (described in WO03/099793) was digested with XhoI and KpnI, and 5.6 kb fragment was ligated with 2.9 kb hMR cDNA fragment obtained by digestion of pB-hMR (described in above (1)) with XhoI and KpnI. The plasmid thus obtained was designated as pMCMVneo-hMR. (3) Expression of hMR in FreeStyle 293 Cells and Preparation of Cell Lysate FreeStyle 293 cells were inoculated at 1×10^8 cells in 93 ml FreeStyle™ 293 Expression Medium (Invitrogen) in a 500 ml Erlenmeyer flask and cultured at 37° C. under 8% CO2 for 1 hr. The cells were treated with 6.7 ml of the transfection mixture containing 100 μg of pMCMVneo-hMR obtained in above (2) and 133 μl of FreeStyle™ 293 Transfection Reagent (Invitrogen). The transfected cells were cultivated for 48 hr at 37° C. in 8% CO2 atmosphere. The cultivated cells were centrifuged and washed with TEG buffer (10 mM Tris-HCl (pH 7.2), 50 mM EDTA, 10% glycerol), and resuspended in 10 ml TEGM buffer (10 mM Tris-HCl (pH 7.2), 1 mM EDTA, 10% glycerol, 1 mM β-mercaptoethanol, 10 mM sodium molybdate, 1 mM dithiothreitol, 2 tablets/100 ml of protease inhibitor cocktail tablets (Roche)). The cell suspension was frozen with liquid nitrogen and thawed on ice, and ultra-centrifuged at 225,000×g for 20 min at 4° C. The supernatant fraction including hMR (hMR lysate) was collected and stored at −80° C. (4) Measurement of Inhibition Activity Against Binding of hMR and Aldosterone [^3H]-Aldosterone (Amersham Biosciences) as ligand was added at 10 nM to the reaction mixture including test compound at various concentration and hMR lysate (1.0 mg/ml) obtained in above (3) and mixture was filled up to 50.5 μl with TEGM buffer. The reaction mixture was incubated for 16 hr at 4° C. and 35 μl of dextran/gelatin coated charcoal suspension (5% charcoal, 0.5% dextran T-70 (Amersham Biosciences), 0.1% gelatin (SIGMA), 10 mM Tris HCl (pH 7.2), 1 mM EDTA) was added thereto to separate bound and free radioactive aldosterone. The mixture containing charcoal was incubated for 10 min at 4° C. and centrifuged at 910×g for 10 min at 4° C. Radioactivity in 30 μl of the supernatant was measured by TopCount™ (Packard). For the determination of nonspecific binding, cold Aldosterone instead of drug was added to reaction mixture at 100 μM. Specific binding was determined by subtracting nonspecific binding from total binding.

`O=C1COc2ccc(C3=Nn4cnnc4SC3c3ccccc3)cc2N1` (stereo not shown) [Example 3, 6-(7-phenyl-7H-[1,2,4]triazolo[3,4-b][1,3,4]thiadiazin-6-yl)-2H-1,4-benzoxazin-3(4H)-one]: the inhibition at 10 µM was ≥ 70%.
As for `O=C1COc2ccc(C3=Nn4ccnc4SC3c3ccccc3)cc2N1` (stereo not shown) [Example 5, 6-(2-Phenyl-2H-imidazo[2,1-b][1,3,4]thiadiazin-3-yl)-2H-1,4-benzoxazin-3(4H)-one], the figure is ≥ 70%; as for `O=C1COc2ccc(C3=Nn4cc(C(F)(F)F)nc4SC3c3ccccc3)cc2N1` (stereo not shown) [Example 7, 6-[2-Phenyl-7-(trifluoromethyl)-2H-imidazo[2,1-b][1,3,4]thiadiazin-3-yl]-2H-1,4-benzoxazin-3(4H)-one], ≥ 70%.
In the case of `O=C1COc2ccc(C3=Nc4ccccc4SC3c3ccccc3)cc2N1` (stereo not shown) [Example 14, 6-(2-Phenyl-2H-1,4-benzothiazin-3-yl)-2H-1,4-benzoxazin-3(4H)-one], the inhibition at 10 µM is ≥ 70%.
To `O=C1COc2ccc(C3=Nc4ccccc4OC3c3ccccc3)cc2N1` (stereo not shown) [Example 18, 2-Phenyl-2H,2′H-3,6′-bi-1,4-benzoxazin-3′(4′H)-one] belongs ≥ 70%; to `O=C1COc2ccc(C3=Cc4ccccc4OC3c3ccccc3)cc2N1` (stereo not shown) [Example 19, 6-(2-Phenyl-2H-chromen-3-yl)-2H-1,4-benzoxazin-3(4H)-one], ≥ 70%; to `O=C1COc2ccc(C3=Cc4ccccc4SC3c3ccccc3)cc2N1` (stereo not shown) [Example 20, 6-(2-Phenyl-2H-thiochromen-3-yl)-2H-1,4-benzoxazin-3(4H)-one], ≥ 70%.
As for `NC1=NC=C(c2ccc3c(c2)NC(=O)CO3)C(c2ccccc2)S1` (stereo not shown) [Example 24, 6-(2-amino-6-phenyl-6H-1,3-thiazin-5-yl)-2H-1,4-benzoxazin-3(4H)-one], the figure is ≥ 70%; as for `O=C1COc2ccc(C3=Cn4ccnc4SC3c3ccccc3)cc2N1` (stereo not shown) [Example 26, 6-(7-Phenyl-7H-imidazo[2,1-b][1,3]thiazin-6-yl)-2H-1,4-benzoxazin-3(4H)-one], ≥ 70%; as for `CCCC1Sc2nncn2N=C1c1ccc2c(c1)NC(=O)CO2` (stereo not shown) [Example 31, 6-(7-Propyl-7H-[1,2,4]triazolo[3,4-b][1,3,4]thiadiazin-6-yl)-2H-1,4-benzoxazin-3(4H)-one], ≥ 70%.
Consider `O=C1COc2ccc(C3=Nn4cnnc4SC3c3ccccc3Cl)cc2N1` (stereo not shown) [Example 34, 6-[7-(2-chlorophenyl)-7H-[1,2,4]triazolo[3,4-b][1,3,4]thiadiazin-6-yl]-2H-1,4-benzoxazin-3(4H)-one], for which the inhibition at 10 µM is ≥ 70%.
As to `O=C1COc2ccc(C3=Nn4cnnc4SC3c3ccc(F)cc3)cc2N1` (stereo not shown) [Example 35, 6-[7-(4-Fluorophenyl)-7H-[1,2,4]triazolo[3,4-b][1,3,4]thiadiazin-6-yl]-2H-1,4-benzoxazin-3(4H)-one], the inhibition at 10 µM was ≥ 70%.
To `O=C1COc2ccc(C3=Nc4ccccc4SC3c3ccccn3)cc2N1` (stereo not shown) [Example 43, 6-(2-Pyridin-2-yl-2H-1,4-benzothiazin-3-yl)-2H-1,4-benzoxazin-3(4H)-one] belongs ≥ 70%; to `O=C1COc2ccc(C3=Cc4ccccc4SC3c3ccccn3)cc2N1` (stereo not shown) [Example 44, 6-(2-Pyridin-2-yl-2H-thiochromen-3-yl)-2H-1,4-benzoxazin-3(4H)-one], ≥ 70%; to `O=C1COc2ccc(C3=NN(c4ccc(F)cc4)CC3c3ccccc3)cc2N1` (stereo not shown) [Example 49, 6-(1-(4-Fluorophenyl)-4-phenyl-4,5-dihydro-1H-pyrazol-3-yl)-2H-benzo[b][1,4]oxazin-3(4H)-one], ≥ 70%.
Regarding `O=C1COc2ccc(C3=NN(CC(F)(F)F)CC3c3ccccc3)cc2N1` (stereo not shown) [Example 53, 6-(4-Phenyl-1-(2,2,2-trifluoroethyl)-4,5-dihydro-1H-pyrazol-3-yl)-2H-benzo[b][1,4]oxazin-3(4H)-one], the inhibition at 10 µM was ≥ 70%.
For `O=C1COc2ccc(C3=NN(C(=O)C(F)(F)F)CC3c3ccccc3)cc2N1` (stereo not shown) [Example 57, 6-(4-Phenyl-1-(2,2,2-trifluoroacetyl)-4,5-dihydro-1H-pyrazol-3-yl)-2H-benzo[b][1,4]oxazin-3(4H)-one], the inhibition at 10 µM was ≥ 70%.
As to `CS(=O)(=O)N1CC(c2ccccc2)C(c2ccc3c(c2)NC(=O)CO3)=N1` (stereo not shown) [Example 59, 6-(1-(Methylsulfonyl)-4-phenyl-4,5-dihydro-1H-pyrazol-3-yl)-2H-benzo[b][1,4]oxazin-3(4H)-one], the inhibition at 10 µM was ≥ 70%.
To `O=C1COc2ccc(C3=C(c4ccc(F)cc4)C(=O)N(c4ccccc4)C3=O)cc2N1` [Example 65, 3-(4-fluorophenyl)-4-(3-oxo-3,4-dihydro-2H-benzo[b][1,4]oxazin-6-yl)-1-phenyl-1H-pyrrole-2,5-dione] belongs ≥ 70%; to `O=C1COc2ccc(C3=C(c4ccc(F)cc4)C(=O)N(c4ccc(F)cc4)C3)cc2N1` [Example 70, 6-(1,4-Bis(4-fluorophenyl)-5-oxo-2,5-dihydro-1H-pyrrol-3-yl)-2H-benzo[b][1,4]oxazin-3(4H)-one], ≥ 70%.
Regarding `O=C1COc2ccc(-c3cc(C(F)(F)F)nn3-c3ccc(F)cc3)cc2N1` [Example 71, 6-(1-(4-Fluorophenyl)-3-(trifluoromethyl)-1H-pyrazol-5-yl)-2H-benzo[b][1,4]oxazin-3(4H)-one], the inhibition at 10 µM is ≥ 70%.
To `O=C1COc2ccc(-c3cc(C(F)(F)F)nn3-c3ccc(Cl)cc3)cc2N1` [Example 74, 6-(1-(4-Chlorophenyl)-3-(trifluoromethyl)-1H-pyrazol-5-yl)-2H-benzo[b][1,4]oxazin-3(4H)-one] belongs ≥ 70%.
